Laboratory results as given in publication PMC12123601, “Light-Induced, Lysine-Targeting Irreversible Covalent Inhibition of the Human Oxygen Sensing Hydroxylase Factor Inhibiting HIF (FIH)” (Journal of the American Chemical Society, 2025).
Values joined by “and” are separate entries in the source; they are usually repeats but may differ in a detail not shown here. Equal entries are not always repeated.

Assays:
FIH = FIH (Homo sapiens, UniProt Q9NWT6); experiment: O-phenylenediamine (OPD) 2OG derivatization turnover assay (remaining 2OG in FIH hydroxylation system); format: biochemical; parameters: Concentration of remaining 2OG: unit: µM
Chain of FIH (Q9NWT6 whole entry): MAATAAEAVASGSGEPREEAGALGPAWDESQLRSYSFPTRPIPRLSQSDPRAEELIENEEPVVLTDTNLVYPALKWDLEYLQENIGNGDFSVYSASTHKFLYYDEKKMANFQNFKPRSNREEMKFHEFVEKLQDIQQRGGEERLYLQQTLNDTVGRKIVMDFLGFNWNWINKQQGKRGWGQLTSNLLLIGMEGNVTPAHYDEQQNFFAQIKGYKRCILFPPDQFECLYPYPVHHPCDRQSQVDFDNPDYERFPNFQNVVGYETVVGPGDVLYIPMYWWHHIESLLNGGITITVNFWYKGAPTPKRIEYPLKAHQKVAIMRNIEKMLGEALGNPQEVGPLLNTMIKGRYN
Description: To explore whether the covalent inhibitor can effectively and sustainably prevent the hydroxylation process catalyzed by FIH, the inhibitory activities against FIH were evaluated using the fluorescent O-phenylenediamine (OPD) 2OG derivatization turnover assay (Figure S9).
Figure S9. Schematic of the O-phenylenediamine (OPD) fluorescent derivative assay6. The assay monitors depletion of 2OG.
(1 picture or pasted object on this page, not shown here) […]
pET28a vectors encoding for full-length FIH with an N-terminal His6 tag or for FIH (K106A) with an N-terminal His6 tag were purchased from Nanjing Zoonbio Biotechnology. Both the FIHWT and FIHK106A protein were expressed from the respective plasmid in Escherichia coli BL21 at 20 °C for 16 h. E. coli cells were lysed and the lysate were clarified by centrifugation. His6-tagged FIHWT or FIHK106A was purified on a HisTrap affinity column (GE Healthcare) by elution with an imidazole gradient. The final purified proteins were stored in PBS buffer. […]
Ki = I50 / [1 + ([L]50 + [P]0)/Kd] […]
3.2 O-Phenylenediamine (OPD) fluorescent derivative assay
Assays were carried out by mixing 1 mM DTT, 0.6 mg/mL of catalase, 200 μM 2-OG, 50 mM Hepes, 200 μM HIF-1α (788-807), and inhibitors at pH 7.0 to a final volume of 44 μL and incubated at 37 °C for 5 min. At the same time, FIH enzyme and iron (prepared as 200 mM stock in 20 mM HCl and diluted with water) were mixed at room temperature for 3 min. […] The reaction was stopped by the addition of 100 μL of 0.5 M HCl. After adding 50 μL of 10 mg/mL OPD in 0.5 M HCl and heating at 95 °C for 10 min, the derivatization was achieved. Then, 50 μL of the mixture centrifugated for 5 min was made basic by adding 30 μL of 1.25 M NaOH, and then fluorescence was detected by SPARK Multi-Mode Microplate Reader (Tecan). […]
Crystals were cryo -protected using mother liquor supplemented with 25%v/v glycerol before manual loop cryo -cooling in liquid N2.
Data for ligand -bound protein complexes were from single crystals at 100 K using Diamond Light Source (UK) beamlines. The FIH crystal structures were determined by molecular replacement (MR) using the AutoMR (PHASER) subroutine in PHENIX (version 1.18.2) based on the PDB ID: 1H2K crystal structure .

Hep3B cells = experiment: Whole-genome RNA sequencing of treated Hep3B cells; format: cell-based; details: replicates B1, B2
Description: To confirm whether the effects of NBA-ZG-2291 on gene expression are FIH-dependent, we knocked down FIH using siRNA and compared the impact of NBA-ZG-2291 treatment and FIH knockdown (siFIH) on gene expression in Hep3B cells. Whole-genome expression profiling analysis was conducted in NBA-ZG-2291-treated Hep3B cells and FIH knockdown Hep3B cells, with DMSO-treated Hep3B cells serving as controls.

Concentration of remaining 2OG (FIH; inhibitor 0.14 μM, incubation 0 min, 200 μM 2-OG at start): 200.0
Concentration of remaining 2OG (FIH; inhibitor 0.14 μM, incubation 15 min): 187.5
Concentration of remaining 2OG (FIH; inhibitor 0.14 μM, incubation 30 min): 184.6
Concentration of remaining 2OG (FIH; inhibitor 0.14 μM, incubation 1 h): 174.8
Concentration of remaining 2OG (FIH; inhibitor 0.14 μM, incubation 4 h): 163.1
Concentration of remaining 2OG (FIH; inhibitor 0.41 μM, incubation 0 min, 200 μM 2-OG at start): 200.0
Concentration of remaining 2OG (FIH; inhibitor 0.41 μM, incubation 15 min): 189.1
Concentration of remaining 2OG (FIH; inhibitor 0.41 μM, incubation 30 min): 188.8
Concentration of remaining 2OG (FIH; inhibitor 0.41 μM, incubation 1 h): 184.6
Concentration of remaining 2OG (FIH; inhibitor 0.41 μM, incubation 4 h): 171.6
Concentration of remaining 2OG (FIH; inhibitor 1.23 μM, incubation 0 min, 200 μM 2-OG at start): 200.0
Concentration of remaining 2OG (FIH; inhibitor 1.23 μM, incubation 15 min): 191.6
Concentration of remaining 2OG (FIH; inhibitor 1.23 μM, incubation 30 min): 190.6
Concentration of remaining 2OG (FIH; inhibitor 1.23 μM, incubation 1 h): 187.9
Concentration of remaining 2OG (FIH; inhibitor 1.23 μM, incubation 4 h): 182.8
Concentration of remaining 2OG (FIH; inhibitor 3.70 μM, incubation 0 min, 200 μM 2-OG at start): 200.0
Concentration of remaining 2OG (FIH; inhibitor 3.70 μM, incubation 15 min): 194.0
Concentration of remaining 2OG (FIH; inhibitor 3.70 μM, incubation 30 min): 193.5
Concentration of remaining 2OG (FIH; inhibitor 3.70 μM, incubation 1 h): 189.6
Concentration of remaining 2OG (FIH; inhibitor 3.70 μM, incubation 4 h): 185.3
Concentration of remaining 2OG (FIH; inhibitor 11.1 μM, incubation 0 min, 200 μM 2-OG at start): 200.0
Concentration of remaining 2OG (FIH; inhibitor 11.1 μM, incubation 15 min): 199.7
Concentration of remaining 2OG (FIH; inhibitor 11.1 μM, incubation 30 min): 198.7
Concentration of remaining 2OG (FIH; inhibitor 11.1 μM, incubation 1 h): 197.8
Concentration of remaining 2OG (FIH; inhibitor 11.1 μM, incubation 4 h): 197.2
Concentration of remaining 2OG (FIH; inhibitor 33.3 μM, incubation 0 min, 200 μM 2-OG at start): 200.0
Concentration of remaining 2OG (FIH; inhibitor 33.3 μM, incubation 15 min): 200.8
Concentration of remaining 2OG (FIH; inhibitor 33.3 μM, incubation 30 min): 198.7
Concentration of remaining 2OG (FIH; inhibitor 33.3 μM, incubation 1 h): 197.6
Concentration of remaining 2OG (FIH; inhibitor 33.3 μM, incubation 4 h): 197.3
Concentration of remaining 2OG (FIH; inhibitor 100 μM, incubation 0 min, 200 μM 2-OG at start): 200.0
Concentration of remaining 2OG (FIH; inhibitor 100 μM, incubation 15 min): 200.1
Concentration of remaining 2OG (FIH; inhibitor 100 μM, incubation 30 min): 199.2
Concentration of remaining 2OG (FIH; inhibitor 100 μM, incubation 1 h): 198.5
Concentration of remaining 2OG (FIH; inhibitor 100 μM, incubation 4 h): 198.3
Concentration of remaining 2OG (FIH; inhibitor 300 μM, incubation 0 min, 200 μM 2-OG at start): 200.0
Concentration of remaining 2OG (FIH; inhibitor 300 μM, incubation 15 min): 201.4
Concentration of remaining 2OG (FIH; inhibitor 300 μM, incubation 30 min): 199.5
Concentration of remaining 2OG (FIH; inhibitor 300 μM, incubation 1 h): 199.2
Concentration of remaining 2OG (FIH; inhibitor 300 μM, incubation 4 h): 198.6
Structure (SMILES): O=C(O)CNC(=O)c1ncc(-c2cc(-c3ccc(CO)c([N+](=O)[O-])c3)no2)cc1O [NBA-ZG-2291]
Inhibition of FIH hydroxylation activity on the HIF peptide (2OG consumption) (FIH; compared to ZG-2291): more potent and sustained inhibition of FIH hydroxylation activity
DPM1 expression (whole-genome RNA sequencing) (Hep3B cells): 3.9965 and 3.239
SCYL3 expression (whole-genome RNA sequencing) (Hep3B cells): 0.949 and 1.202
TNMD expression (whole-genome RNA sequencing) (Hep3B cells): 0
TSPAN6 expression (whole-genome RNA sequencing) (Hep3B cells): 7.032 and 6.946
